Test results taken from US6352722B1, “Derivatized carbohydrates, compositions comprised thereof and methods of use thereof” (Quadrant Holdings Cambridge Limited, priority 1997, dated 2002).

Tests used:
[1] = Glass formation, crystallization and glass stability above ambient temperature; format: physicochemical
Source text: In the usual process to form a vitreous glass, a high temperature melt is quenched (cooled quickly) to solidify without crystallization to a vitreous glass. Most glassy materials can theoretically quench to a vitreous glass, however, factors such as low melt viscosity, thermodynamically favorable crystalline states and thermal degradation, limit their potential to form vitreous rather than crystalline solids.
(§1) The carbohydrate derivatives were routinely synthesized by standard esterification of the carbohydrate with the chloride of the desired hydrocarbon side chain under anhydrous conditions and the resulting derivatives purified by standard techniques of solvent extraction and re-crystallization. For example, trehalose octa-3,3-dimethylbutyrate was synthesized by reacting 3,3,-dimethylbutyroyl chloride with trehalose in anhydrous pyridine, followed by extraction with ether, hydrochloric acid, potassium carbonate solution and water and finally re-crystallized twice from alcohol to yield colorless, needle-like crystals (˜80% yield) of m.pt 138-140° C., αD 112°. Trehalose hexa-3,3-dimethylbutyrate (THEX) can be prepared by protecting the 6,6′-hydroxy group of trehalose with a bulky group such as trityl or t-butyldiphenylsilyl, for example by heating trehalose and trityl chloride in pyridine. The 6,6′-ditrityltrehalose can be acylated with 3,3-dimethylbutyroyl chloride in pyridine to give 6,6′-ditritylhexa-3,3-dimethylbutyryltrehalose. The trityl group can be removed by strong acid, for example hydrogen bromide in acetic acid, to give THEX. TACT can be prepared by acylating THEX with acetic anhydride in pyridine. Suitable work-up yields the HDC in crystalline form. The physical characteristics, melting points and glass transition temperatures (Tg, ° C.) of selected carbohydrate derivatives are shown in Tables 1-5.
This unusual property of branched-chain derivatives enables more hydrophobic derivatives (compared to the acetates) to be prepared, which permits further reduction of drug release rates for longer term applications.

[2] = Glass transition temperature (Tg) of derivatized carbohydrates, by DSC; format: physicochemical
Source text: The reaction product can be characterized structurally by methods known in the art, including, but not limited to, nuclear magnetic resonance spectroscopy (NMR) and its material science properties characterized by differential scanning calorimetry (DSC). The characteristic melting points and Tgs (glass transition temperatures) for the derivatized carbohydrates can also be determined by DSC and other methods known in the art.
as §1

[3] = Tg of HDC formulations with incorporated active; format: physicochemical
Source text: (§2) The model hydrophilic drug, diltiazem hydrochloride (“hydrophilic active”), was incorporated (10% loading) into solid vehicles of the single straight chain HDC trehalose octaacetate or the branched chain HDCs trehalose octa-3,3, dimethylbutyrate and trehalose octapivalate as well as composite formulations (1:1 ratio) of the two branched-chain HDCs or the straight chain HDC trehalose octaacetate and the branched chain HDC trehalose octapivalate, by quenching from the melt. Release of the active from the HDC solid dose delivery vehicle was assessed using an in vitro USP (volume 23) type 2 dissolution test in saline containing 0.1% sodium cholate as the dissolution medium.
The model hydrophilic drug diltiazem hydrochloride was also incorporated (5% loading) into solid vehicles of the single branched chain HDCs trehalose diisobutyrate hexaacetate and trehalose octapivalate and composite formulations (1:1 ratio) of the two branched-chain HDCs by solvent removal by rotary evaporation, in a Buchi Rotavapor R-124, of a 20% solution of active plus HDCs in a dichloromethane: acetone mixed solvent (9:1 ratio) system. […] (trehalose octapivalate) of the single branched-chain HDC formulations of active.
(§3) The model hydrophobic steroid fluticasone propionate (“hydrophobic active”) was incorporated (5% loading) into solid vehicles of the single straight chain HDC trehalose octaacetate or the branched chain HDCs trehalose octa-3,3, dimethylbutyrate and trehalose dipropanoate hexaacetate and composite formulations (1:1 ratio) of the two branched-chain HDCs by either quenching from the melt or solvent evaporation by rotary evaporation. Melt incorporation was carried out by melting the HDCs at 150-170° C. and dissolving the active in the melt at 120-140° C. Rotary evaporation was carried out using a Buchi Rotavapor R-124 using a 20% solution of active plus HDCs in a dichloromethane: acetone mixed solvent (9:1 ratio) system. The hydrophobic active was also incorporated into solid vehicles of the branched chain HDCs, trehalose octapivalate, trehalose diisobutyrate hexaacetate and lactose isobutyrate heptaacetate, either by quenching from the melt or solvent evaporation by rotary evaporation. Release of hydrophobic active from the HDC solid dose delivery vehicle was assessed using an in vitro USP (volume 23) type 2 dissolution test in saline containing 0.1% sodium cholate as the dissolution medium.
(§4) As an example of a polypeptide drug, the polypeptide hormone insulin (“polypeptide active”) was incorporated (10% loading) into solid vehicles of the single branched chain HDCs trehalose diisobutyrate hexaacetate and trehalose hexapivalate and composite formulations of the branched chain HDCs trehalose diisobutyrate hexaacetate and trehalose octapivalate (8:1 ratio) by solvent removal by lyophilization of a 20% solution of insulin plus HDCs in dimethylsulfoxide. […] Release of active from the HDC solid dose delivery vehicle was assessed using an in vitro USP (volume 23) type 2 dissolution test in saline containing 0.1% sodium cholate as the dissolution medium.

[4] = Devitrification / glass stability when immersed in aqueous media; conditions: immersed in saline medium at 37° C.
[5] = In vitro USP (volume 23) type 2 dissolution test, release of active from HDC solid vehicle; format: physicochemical; conditions: saline with 0.1% sodium cholate; for release of fluticasone propionate from single HDC formulation: compared to trehalose octaacetate formulation Q1 (FIG. 3)
Source text: as §2, §3, §4

[6] = derivatized carbohydrate alone, Tables 1-4
[7] = derivatized carbohydrate without active, Table 5
[8] = hydrophobic active (fluticasone propionate, 5% loading) incorporated
[9] = hydrophilic active (diltiazem hydrochloride) incorporated
[10] = polypeptide active (insulin, 10% loading) incorporated by lyophilization from dimethylsulfoxide

CC(C)C(=O)OCC1OC(OC2C(COC(=O)C(C)C)OC(OC(=O)C(C)C)C(OC(=O)C(C)C)C2OC(=O)C(C)C)C(OC(=O)C(C)C)C(OC(=O)C(C)C)C1OC(=O)C(C)C (stereo not shown) [Cellobiose octaisobutyrate]
COMMENT: glass formation / glass stability above ambient temperature [1]: very hard to quench to glass

CC(=O)OC[C@H]1O[C@@H](O[C@H]2[C@H](OC(C)=O)[C@@H](OC(C)=O)C(OC(=O)C(C)C)O[C@@H]2COC(C)=O)[C@H](OC(C)=O)[C@@H](OC(C)=O)[C@H]1OC(C)=O (stereo partly shown) [Lactose isobutyrate heptaacetate]
Tg(° C.) [2, 6]: 60 °C
Tg(° C.) [2, 7]: 60 °C
crystallization from solution ([1]; blend: small amount of the corresponding anomer added): fails to crystallize
crystallization from solution ([1]; pure α,β anomers): crystallize from solution
Tg (° C.) with active incorporated [3, 8]: 59 °C

CC(=O)OC[C@H]1O[C@H](O[C@H]2O[C@H](COC(C)=O)[C@@H](OC(=O)CC(C)(C)C)[C@H](OC(=O)CC(C)(C)C)[C@H]2OC(=O)CC(C)(C)C)[C@H](OC(=O)CC(C)(C)C)[C@@H](OC(=O)CC(C)(C)C)[C@@H]1OC(=O)CC(C)(C)C [Trehalose 6,6′-diaacetate hexa-3,3-dimethylbutyrate]
Tg(° C.) [2, 6]: 44 °C
stability of the glassy state [4]: the glass stability is reduced

CC(C)(C)CC(=O)OC[C@H]1O[C@H](O[C@H]2O[C@H](COC(=O)CC(C)(C)C)[C@@H](OC(=O)CC(C)(C)C)[C@H](OC(=O)CC(C)(C)C)[C@H]2OC(=O)CC(C)(C)C)[C@H](OC(=O)CC(C)(C)C)[C@@H](OC(=O)CC(C)(C)C)[C@@H]1OC(=O)CC(C)(C)C [Trehalose octa-3,3-dimethylbutyrate]
Tg(° C.) [2, 6]: 42 °C
Tg(° C.) [2, 7]: 46 °C
Tg (° C.) with active incorporated [3, 8]: 45 °C
release of diltiazem hydrochloride (DZM) from single HDC formulation ([5]; 10% loading, compared to trehalose octaacetate formulation (FIG. 1)): much slower release
release of fluticasone propionate from single HDC formulation [5]: much slower release

CC(=O)OCC1OC(OC2OC(COC(C)=O)C(OC(C)=O)C(OC(C)=O)C2OC(C)=O)C(OC(C)=O)C(OC(C)=O)C1OC(C)=O (stereo not shown) [Trehalose octaacetate, reference compound]
Tg(° C.) [2, 6]: 55 °C
Tg(° C.) [2, 7]: 50 °C
Tg (° C.) with active incorporated [3, 8]: 53 °C
release of active (insulin) ([5]; after 1 hour in the dissolution assay): 88%

CC(C)(C)C(=O)OC[C@H]1O[C@H](O[C@H]2O[C@H](COC(=O)C(C)(C)C)[C@@H](OC(=O)C(C)(C)C)[C@H](OC(=O)C(C)(C)C)[C@H]2OC(=O)C(C)(C)C)[C@H](OC(=O)C(C)(C)C)[C@@H](OC(=O)C(C)(C)C)[C@@H]1OC(=O)C(C)(C)C [Trehalose octapivalate]
Tg(° C.) [2, 6]: 81 °C
Tg(° C.) [2, 7]: 80 °C
Tg (° C.) with active incorporated [3, 9]: 83.7 °C
Tg (° C.) with active incorporated [3, 8]: 80 °C
release of fluticasone propionate from single HDC formulation [5]: much slower release

CC(=O)OCC1OC(OC2C(COC(C)=O)OC(OC(C)=O)C(OC(C)=O)C2OC(C)=O)C(OC(C)=O)C(OC(C)=O)C1OC(C)=O (stereo not drawn) [α-Cellobiose octaacetate, reference compound]
Tg(° C.) [2, 6]: 65 °C
COMMENT: glass formation / glass stability above ambient temperature [1]: Poor glass former

CC(=O)OCC1OC(OC2C(COC(C)=O)OC(OC(C)=O)C(OC(C)=O)C2OC(C)=O)C(OC(C)=O)C(OC(C)=O)C1OC(C)=O (stereo not drawn) [β-Cellobiose octaacetate, reference compound]
Tg(° C.) [2, 6]: 53 °C
COMMENT: glass formation / glass stability above ambient temperature [1]: Good glass former

Trehalose diisobutyrate hexaacetate
Tg(° C.) [2, 7]: 42 °C
Tg (° C.) with active incorporated [3, 9]: 46.5 °C
Tg (° C.) with active incorporated [3, 8]: 50 °C
Tg (° C.) with active incorporated [3, 10]: 50.1 °C

Trehalose dipropanoate hexaacetate
Tg(° C.) [2, 7]: 38 °C
Tg (° C.) with active incorporated [3, 8]: 44 °C

Trehalose hexa-3,3-dimethylbutyrate
Tg(° C.) [2, 6]: 64 °C
stability of the glassy state [4]: stable in the glassy state

Trehalose hexapivalate
Tg(° C.) [2, 6]: 86 °C
Tg(° C.) [2, 7]: 86 °C
Tg (° C.) with active incorporated [3, 10]: 76.5 °C
